In patent US3949090A, “Methods and compositions for improving feed efficiency in ruminants using dithiooxamide” (SmithKline Corporation, priority 1974, dated 1976):

Assays:
[1] = system: methanogenesis (strained rumen fluid); assay: In vitro effects upon methanogenesis; type: cell-based; conditions: Table III, dithiooxamide 0 ppm
Description: (§1) The in vitro fermentation system contained 75 ml. strained rumen fluid, 200 mg, alfalfa hay, 800 mg. of a crude protein grain mixture, 0.8 to 1.6 mM of each of 10 essential amino acids (threonine, valine, methionine, isoleucine, leucine, phelylalanine, tryptophan, lysine and arginine), and 0 to 50 ppm dithiooxamide. Flasks were incubated for 4 hours with effects upon amino acid deamination assessed as described for the previous system. Using standard chromatographic techniques, effects upon methanogenesis and upon the pattern of volatile fatty acid production were determined.
(§2) ^1 In vitro fermentation system contained 75 ml. strained rumen fluid
(§3) 200 mg. alfalfa hay, 800 mg. grain mixture (16% crude protein) and 1.6 mM
(§4) of each of ten essential amino acids. Flasks were incubated for four
(§5) 200 mg. alfalfa hay, 800 mg. grain mixture (16% crude protein) and 0.8 mM

[2] = system: gas production (strained rumen fluid); assay: In vitro gas production; type: cell-based; conditions: Table III, dithiooxamide 0 ppm, control 65
Description: as §1, §2, §5, §4

[3] = system: Microbial Deaminase (strained rumen fluid); assay: In vitro microbial deaminase inhibition (rumen fluid, alfalfa hay, grain mixture; 4 hours); type: cell-based; conditions: Table III, dithiooxamide 0 ppm, 240 min
Description: as §1, §2, §3, §4, §5

[4] = system: volatile fatty acid production (strained rumen fluid); assay: In vitro volatile fatty acid production; type: cell-based; conditions: Table III, dithiooxamide 0 ppm; for Volatile Fatty Acids (molar distribution, %): Propionate: control 15; for Volatile Fatty Acids (molar distribution, %): Butyrate: control 21; for Volatile Fatty Acids (molar distribution, %): Acetate: control 64; for Volatile Fatty Acid Carbon: control 125
Description: as §1, §2, §3, §4, §5

sheep = conditions: amino acid supplement; cited from earlier work
protein deposition = conditions: compared with acetate; Potter et al., Eskeland et al.; cited from earlier work

With `O=S(=O)([O-])[O-].[Co+2]` [Cobalt Sulfate, reference compound] the “Methane Inhibition (%)” value ([1]; cobalt sulfate .013 ppm) was 1%, the “Methane Inhibition (%)” value ([1]; cobalt sulfate .067 ppm) was -5% and the “Gas Production” value ([2]; cobalt sulfate .013 ppm) was 65 cc. The “Gas Production” value ([2]; cobalt sulfate .067 ppm) was 65 cc, the “MDI (%)” value ([3]; cobalt sulfate .013 ppm) was 1% and the “MDI (%)” value ([3]; cobalt sulfate .067 ppm) was 2%. The “Volatile Fatty Acids (molar distribution, %): Propionate” value ([4]; cobalt sulfate .013 ppm) was 15%, the “Volatile Fatty Acids (molar distribution, %): Butyrate” value ([4]; cobalt sulfate .013 ppm) was 22% and the “Volatile Fatty Acids (molar distribution, %): Acetate” value ([4]; cobalt sulfate .013 ppm) was 63%. The “Volatile Fatty Acid Carbon” value ([4]; cobalt sulfate .013 ppm) was 120 μ moles/ml, the “Volatile Fatty Acids (molar distribution, %): Propionate” value ([4]; cobalt sulfate .067 ppm) was 15% and the “Volatile Fatty Acids (molar distribution, %): Butyrate” value ([4]; cobalt sulfate .067 ppm) was 22%. The “Volatile Fatty Acids (molar distribution, %): Acetate” value ([4]; cobalt sulfate .067 ppm) was 63% and the “Volatile Fatty Acid Carbon” value ([4]; cobalt sulfate .067 ppm) was 127 μ moles/ml.
In the case of `O=S(=O)([O-])[O-].[Cu+2]` [Copper Sulfate, reference compound], the “Methane Inhibition (%)” value ([1]; copper sulfate .067 ppm) is reported as -5%, the “Methane Inhibition (%)” value ([1]; copper sulfate .333 ppm) is reported as -11% and the “Gas Production” value ([2]; copper sulfate .067 ppm) is reported as 65 cc. The “Gas Production” value ([2]; copper sulfate .333 ppm) was 64 cc, the “MDI (%)” value ([3]; copper sulfate .067 ppm) was 3% and the “MDI (%)” value ([3]; copper sulfate .333 ppm) was 6%. The “Volatile Fatty Acids (molar distribution, %): Propionate” value ([4]; copper sulfate .067 ppm) was 15%, the “Volatile Fatty Acids (molar distribution, %): Butyrate” value ([4]; copper sulfate .067 ppm) was 21% and the “Volatile Fatty Acids (molar distribution, %): Acetate” value ([4]; copper sulfate .067 ppm) was 64%. The “Volatile Fatty Acid Carbon” value ([4]; copper sulfate .067 ppm) was 123 μ moles/ml, the “Volatile Fatty Acids (molar distribution, %): Propionate” value ([4]; copper sulfate .333 ppm) was 15% and the “Volatile Fatty Acids (molar distribution, %): Butyrate” value ([4]; copper sulfate .333 ppm) was 22%. The “Volatile Fatty Acids (molar distribution, %): Acetate” value ([4]; copper sulfate .333 ppm) was 63% and the “Volatile Fatty Acid Carbon” value ([4]; copper sulfate .333 ppm) was 121 μ moles/ml.
In the case of `CSCC[C@H](N)C(=O)O` [Methionine], the “quality of wool in sheep (in words)” value (sheep) is given as “particularly useful in increasing the quality of wool in sheep”.
For `CCC(=O)O` [propionate], the “energy metabolites for protein deposition in sheep (in words)” value (protein deposition) is given as “better energy metabolites than acetate for protein deposition in sheep”.
